Structures can show the parent of a compound that is named as a salt. Where a SMILES comes first, the peptide text is derived from it. Where no end group is shown, it is not given here. [ ]: non-standard residue; d: D form.

For orientation: IC50 means the concentration that gives 50% inhibition. A high value points to weaker potency in that assay.

The test system of the first experiment is opiate receptor. The experiment in a line: Specific binding affinity for the opiate receptor of the radio-iodinated peaks. To be noted: first peak (monoiodinated) compared with second peak (diiodinated). On the procedure: The material comprising this peak was applied to a Sephadex 2-(diethylamino)ethyl ether column and eluted with sodium borate buffer (12.5 mM, pH 9.0, 0.1 N sodium chloride).
With `CC(C)C[C@H](NC(=O)[C@H](Cc1ccccc1)NC(=O)CNC(=O)[C@@H](C)NC(=O)[C@@H](N)Cc1ccc(O)c([125I])c1)C(=O)O` [material of the first peak, H.Tyr(3-^125 I).D-Ala.Gly.Phe.Leu.OH], the “specific binding affinity (for the opiate receptor)” value is given as “greater specific binding affinity”.

The next experiment addresses opiate receptor. The experiment in a line: Opiate receptor affinity by method of Pasternak et al. using tritiated naloxone, absence of sodium ions. Type of experiment: binding. To be noted: TABLE 1 (Example 2), method indicated in Example 1: tritiated naloxone. The protocol: *Method of Pasternak, G. W. et al., Molecular Pharmacology, 11, 340-351
(1975) using tritiated naloxone and in the absence of sodium ions; assays
performed at 4° C. in the presence of bacitracin (50 μg/ml) in
trishydrochloric acid buffer (50 mM, pH 7.4).
(§1) The opiate receptor IC50 (M) was ascertained by the method indicated in Example 1.
as §1
The compound `CC(C)C[C@H](NC(=O)[C@H](Cc1ccccc1)NC(=O)CNC(=O)[C@@H](C)NC(=O)[C@@H](N)Cc1ccc(O)cc1)C(=O)N[C@H](C(=O)O)[C@@H](C)O` [(G), H . Tyr . D-Ala . Gly . Phe . Leu . Thr . OH HCl] (H-Y[dA]GFLT-OH) yielded an IC50 of 0.008 µM.

As to `CSCC[C@@H](NC(=O)[C@H](Cc1ccccc1)NC(=O)CNC(=O)[C@@H](C)NC(=O)[C@@H](N)Cc1ccc(O)cc1)C(=O)O` [(J), H . Tyr . D-Ala . Gly . Phe . D-Met . OH HCl], the 50% inhibitory concentration (IC50) is 0.008 µM.

Compound `COC(=O)[C@H](CCSC)NC(=O)[C@H](Cc1ccccc1)NC(=O)CNC(=O)[C@@H](C)NC(=O)[C@@H](N)Cc1ccc(O)cc1` [(D), H . Tyr . D-Ala . Gly . Phe . Met . OMe] showed an IC50 of 0.005 µM.

Regarding `CSCC[C@H](NC(=O)[C@H](Cc1ccccc1)NC(=O)CNC(=O)[C@@H](C)NC(=O)[C@@H](N)Cc1ccc(O)cc1)C(=O)N[C@H](C(=O)O)[C@@H](C)O` [(E), H . Tyr . D-Ala . Gly . Phe . Met . Thr . OH HCl] (H-Y[dA]GFMT-OH), the midpoint of inhibition, the IC50, lay at 0.0056 µM.

Compound `COC(=O)[C@@H](CC(C)C)NC(=O)[C@H](Cc1ccc(Cl)cc1)NC(=O)CNC(=O)[C@@H](C)NC(=O)[C@@H](N)Cc1ccc(O)cc1` [(L), H . Tyr . D-Ala . Gly . Phe (4Cl) . D-Leu . OMe HCl] showed a half-maximal inhibitory concentration (IC50) of 0.002 µM.

Regarding `CC(C)C[C@@H](NC(=O)[C@H](Cc1ccc(Cl)cc1)NC(=O)CNC(=O)[C@@H](C)NC(=O)[C@@H](N)Cc1ccc(O)cc1)C(=O)O` [(K), H . Tyr . D-Ala . Gly . Phe (4Cl) . D-Leu . OH HCl], the IC50 stood at 0.001 µM.

The same experiment, now with this note: TABLE 2 (Example 3), method indicated in Example 1: tritiated naloxone.
`CC(C)C[C@H](NC(=O)[C@H](Cc1ccccc1)NC(=O)[C@H](C)NC(=O)[C@@H](C)NC(=O)[C@@H](N)Cc1ccc(O)cc1)C(=O)O` [(N), H . Tyr . D-Ala . Ala . Phe . Leu . OH HCl] (H-Y[dA]AFL-OH) had an IC50 of 0.08 µM.

Compound `CN[C@@H](Cc1ccc(O)cc1)C(=O)N[C@H](C)C(=O)NCC(=O)N[C@@H](Cc1ccccc1)C(=O)N[C@H](CC(C)C)C(N)=O` [(X), H . MeTyr . D-Ala . Gly . Phe . D-Leu . NH2 HCl] came in with an IC50 of 0.02 µM.

`CC(C)C[C@@H](NC(=O)[C@H](Cc1ccccc1)NC(=O)CNC(=O)CNC(=O)[C@@H](N)Cc1ccc(O)cc1)C(=O)O` [(P), H . Tyr . Gly . Gly . Phe . D-Leu . OH HCl] yielded an IC50 of 0.025 µM.

In turn, `C[C@@H](NC(=O)[C@@H](N)Cc1ccc(O)cc1)C(=O)NCC(=O)N[C@@H](Cc1ccccc1)C(=O)O` [(T), H . Tyr . D-Ala . Gly . Phe . OH HCl] gave an IC50 of 0.07 µM.

In the case of `C[C@@H](NC(=O)[C@@H](N)Cc1ccc(O)cc1)C(=O)NCC(=O)N[C@@H](Cc1ccccc1)C(=O)N[C@H](C(=O)O)[C@@H](C)O` [(Q), H . Tyr . D-Ala . Gly . Phe . Thr . OH HCl] (H-Y[dA]GFT-OH), the IC50 worked out at 0.09 µM.

Turning to `CCNC(=O)[C@@H](CC(C)C)NC(=O)[C@H](Cc1ccc(Cl)cc1)NC(=O)CNC(=O)[C@@H](C)NC(=O)[C@@H](N)Cc1ccc(O)cc1` [(A1), H . Tyr . D-Ala . Gly . Phe(4Cl) . D-Leu . NHEt HCl], the IC50 was 0.08 µM.

As for `CSCC[C@@H](NC(=O)[C@H](Cc1ccccc1)NC(=O)CNC(=O)[C@@H](C)NC(=O)[C@@H](N)Cc1ccc(O)cc1)C(=O)N[C@H](C(=O)O)[C@@H](C)O` [(S), H . Tyr . D-Ala . Gly . Phe . D-Met . Thr . OH HCl] (H-Y[dA]GF[dM]T-OH), inhibition was half-maximal at 0.07 µM (IC50).

`COC(=O)[C@@H](CC(C)C)NC(=O)[C@H](Cc1ccccc1)NC(=O)CNC(=O)CNC(=O)[C@@H](N)Cc1ccc(O)cc1` [(W), H . Tyr . Gly . Gly . Phe . D-Leu . OMe HCl]: 0.06 µM corresponded to half-maximal inhibition (IC50).

`CC(C)C[C@@H](NC(=O)[C@H](Cc1ccccc1)NC(=O)CNC(=O)[C@@H](C)NC(=O)[C@@H](N)Cc1ccc(O)cc1)C(=O)Oc1ccc(Cl)cc1` [(U), H . Tyr . D-Ala . Gly . Phe . D-Leu . p-chlorophenyl ester HCl] had a half-inhibitory concentration (IC50) of 0.05 µM.

Compound `CSCC[C@@H](NC(=O)[C@H](Cc1ccccc1)NC(=O)CNC(=O)CNC(=O)[C@@H](N)Cc1ccc(O)cc1)C(=O)O` [(Z), H . Tyr . Gly . Gly . Phe . D-Met . OH HCl] had an IC50 of 0.01 µM.

`CN[C@@H](Cc1ccc(O)cc1)C(=O)N[C@H](C)C(=O)NCC(=O)N[C@@H](Cc1ccccc1)C(=O)N[C@H](CC(C)C)C(=O)O` [(V), H . MeTyr . D-Ala . Gly . Phe . D-Leu . OH HCl] registered a half-inhibitory concentration (IC50) of 0.03 µM.

As to `CC(C)C[C@@H](NC(=O)[C@H](Cc1ccccc1)NC(=O)CNC(=O)[C@@H](C)NC(=O)[C@@H](N)Cc1ccc(O)cc1)C(=O)N[C@H](C(=O)O)[C@@H](C)O` [(R), H . Tyr . D-Ala . Gly . Phe . D-Leu . Thr . OH HCl] (H-Y[dA]GF[dL]T-OH), it took 0.03 µM to reach half-maximal inhibition (IC50).

As to `CCCC[C@H](NC(=O)[C@H](Cc1ccccc1)NC(=O)CNC(=O)CNC(=O)[C@@H](N)Cc1ccc(O)cc1)C(=O)O` [(O), H . Tyr . Gly . Gly . Phe . Nle . OH HCl], the IC50 turned out to be 0.08 µM.

Regarding `COC(=O)[C@@H](CCSC)NC(=O)[C@H](Cc1ccccc1)NC(=O)CNC(=O)CNC(=O)[C@@H](N)Cc1ccc(O)cc1` [(Y), H . Tyr . Gly . Gly . Phe . D-Met . OMe HCl], half-maximal inhibition (IC50) was put at 0.06 µM.

Turning to “YGGFV [(M), H . Tyr . Gly . Gly . Phe . Val . OH HCl]”, inhibition was half-maximal at 0.08 µM (IC50).

The same experiment, now with this note: table of Example 1, tritiated naloxone, 4° C., bacitracin 50 μg/ml, pH 7.4.
`CSCC[C@H](NC(=O)[C@H](Cc1ccccc1)NC(=O)CNC(=O)[C@@H](C)NC(=O)[C@@H](N)Cc1ccc(O)cc1)C(=O)O` [(B), H . Tyr . D-Ala . Gly . Phe . Met . OH HCl]: the concentration for half-maximal inhibition (IC50) was found to be 0.0038 µM.

Turning to `CC(C)C[C@H](NC(=O)[C@H](Cc1ccccc1)NC(=O)CNC(=O)[C@@H](C)NC(=O)[C@@H](N)Cc1ccc(O)cc1)C(=O)O` [Compound (A), H . Tyr . D-Ala . Gly . Phe . Leu . OH HCl], it took […] to reach half-maximal inhibition (IC50).

In turn, `CC(C)C[C@@H](NC(=O)[C@H](Cc1ccccc1)NC(=O)CNC(=O)[C@@H](C)NC(=O)[C@@H](N)Cc1ccc(O)cc1)C(=O)O` [(C), H . Tyr . D-Ala . Gly . Phe . D-Leu . OH HCl] showed an IC50 of […].

These data come from US4263255A, “Assay method and compounds” (Burroughs Wellcome Co., priority 1979, dated 1981).
